Active and inactive are the calls of the source. No cut-off for these calls is given here.
Tests used:
[1] = target: Protein kinase C (PKC) (Rattus norvegicus) (UniProt P05696+P68403+P09216+P63319+P09215+Q64617+Q9WTQ0+P09217); assay: Antagonist activity against protein Kinase C; assay type: functional
[2] = system: HL-60; assay: Compound was tested for the inhibition of the growth of HL60 cells at a concentration 10E-4 M; NS no significant affect is observed; assay type: functional, cell-based; conditions: Homo sapiens
[3] = system: HL-60; assay: Compound was tested for the inhibition of the growth of HL60 cells at a concentration 10E-4 M; reduction of growth was observed; assay type: functional; conditions: Homo sapiens

**Q.** For `CCCCCCCOC(=O)O[C@@H]1[C@@H](CO)OC(=O)[C@@H]1OC(=O)OCCCCCCC`, which Activity [1] is on record?
**A.** inactive

**Q.** How did the Activity [1] turn out when `CCCCCCCOC(=O)O[C@H]1OC(=O)[C@H](O)[C@@H]1OC(=O)OCCCCCCC` was run?
**A.** inactive

**Q.** With `CCCCCCCOC(=O)O[C@H]1OC(=O)C[C@@H]1O` as the compound, how does the Activity [2] read?
**A.** inactive

**Q.** `CCCCCCCOC(=O)O[C@H]1OC(=O)[C@H](O)[C@@H]1O` was tested. Which Activity [1] did it give?
**A.** inactive

**Q.** How did the inhibition at 100 µM [3] turn out when `CCCCCCCOC(=O)O[C@H]1CC(=O)O[C@@H]1CO` was run?
**A.** 20%

**Q.** What about the Activity [1] of the same compound?
**A.** inactive

Source: ChEMBL document CHEMBL1126395, “The synthesis of conformationally-restricted diacyl glycerol analogues” (1992)
